# According to ChEMBL document CHEMBL1201862, “PubChem BioAssay data set” (2004):
# Activity calls are given as the source filed them.
# Legend:
# Aminopeptidase N = biological target: T1, Aminopeptidase N (Plasmodium falciparum FcB1/Columbia, UniProt O96935); test: P. falciparum M1AAP inhibitors, biochemical, fluorogenic H-Leu-NHMec substrate, 1536-well (AID 1445); set-up: species or system Plasmodium falciparum 3D7, 3D7
# T1 sequence (O96935 whole entry): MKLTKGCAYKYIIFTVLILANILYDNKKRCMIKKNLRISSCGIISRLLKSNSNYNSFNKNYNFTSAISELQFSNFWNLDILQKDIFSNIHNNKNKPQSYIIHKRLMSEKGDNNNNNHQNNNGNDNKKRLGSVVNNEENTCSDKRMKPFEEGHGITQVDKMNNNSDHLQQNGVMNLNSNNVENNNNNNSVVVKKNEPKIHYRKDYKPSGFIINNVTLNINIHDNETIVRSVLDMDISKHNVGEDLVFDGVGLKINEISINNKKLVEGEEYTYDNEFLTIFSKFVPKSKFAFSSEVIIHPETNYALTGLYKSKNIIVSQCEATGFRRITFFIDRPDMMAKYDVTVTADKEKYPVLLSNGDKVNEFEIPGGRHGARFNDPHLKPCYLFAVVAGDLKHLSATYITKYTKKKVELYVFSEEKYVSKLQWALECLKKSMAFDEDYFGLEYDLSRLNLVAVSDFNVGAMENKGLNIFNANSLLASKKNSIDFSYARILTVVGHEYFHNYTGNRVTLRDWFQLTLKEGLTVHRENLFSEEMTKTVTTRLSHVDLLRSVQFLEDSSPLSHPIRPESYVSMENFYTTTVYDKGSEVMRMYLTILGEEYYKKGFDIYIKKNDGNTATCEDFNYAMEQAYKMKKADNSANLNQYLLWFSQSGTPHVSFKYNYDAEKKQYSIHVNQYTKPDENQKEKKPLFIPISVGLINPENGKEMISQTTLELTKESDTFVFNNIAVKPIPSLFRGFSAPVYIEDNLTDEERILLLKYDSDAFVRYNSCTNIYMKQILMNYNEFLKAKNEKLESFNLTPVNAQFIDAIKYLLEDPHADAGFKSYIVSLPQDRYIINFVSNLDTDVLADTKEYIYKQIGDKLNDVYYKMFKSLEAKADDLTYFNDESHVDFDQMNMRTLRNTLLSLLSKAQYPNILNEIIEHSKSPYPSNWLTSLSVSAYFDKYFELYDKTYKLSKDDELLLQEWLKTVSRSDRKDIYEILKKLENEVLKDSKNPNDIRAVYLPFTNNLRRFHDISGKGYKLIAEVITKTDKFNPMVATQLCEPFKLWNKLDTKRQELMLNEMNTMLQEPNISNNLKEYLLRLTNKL
# [1] = M. tuberculosis H37Rv growth inhibitors, H37Rv strain (AID 1626); format: functional
# [2] = biological target: G-protein coupled receptor 183 (Homo sapiens, UniProt P32249); test: SAR confirmation of small molecule antagonists of the EBI2 receptor via a luminescent beta-arrestin assa.; format: functional
# [3] = P. falciparum Dd2 growth inhibitors, dose response, SYBR Green, cherry-picked samples (AID 1159567); format: functional, cell-based
# [4] = HepG2 cell cytotoxicity, dose response, cytotoxicity control, cherry-picked samples (AID 1159577); format: functional, cell-based
# [5] = P. falciparum 3D7-ScDHODH growth inhibitors, dose response, SYBR Green, dry powder samples (AID 1159570); format: functional, cell-based;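 further: parasite growth measured after 72 hours of compound exposure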
# [6] = P. falciparum Dd2 growth inhibitors, dose response, SYBR Green, dry powder samples (AID 1159566); format: functional, cell-based;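 further: potency for growth inhibition with lower SYBR green DNA signal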
# [7] = P. falciparum ATP4 D1247Y mutant growth inhibitors, dose response, NITD609-resistant line, SYBR Green, dry powder (AID 1159571); format: functional, cell-based;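 further: parasites synchronized at ring stage by sorbitol before testing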
# [8] = biological target: T2, Low molecular weight phosphotyrosine protein phosphatase (Homo sapiens, UniProt P24666); test: LMPTP phosphatase inhibitors, dose response, biochemical, OMFP substrate, fluorescence intensity, set 2 (AID 743307); format: functional
# T2 sequence (P24666 whole entry): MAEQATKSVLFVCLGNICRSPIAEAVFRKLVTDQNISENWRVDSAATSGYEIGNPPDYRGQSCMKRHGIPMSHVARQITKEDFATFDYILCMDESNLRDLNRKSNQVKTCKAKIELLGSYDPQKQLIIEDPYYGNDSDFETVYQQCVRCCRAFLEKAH
# [9] = biological target: T2, Low molecular weight phosphotyrosine protein phosphatase; test: LMPTP phosphatase inhibitors, colorimetric pNPP readout, dose response, orthogonal assay, biochemical, absorbance, pNPP substrate, LMPTP-A isoform, set 2 (AID 743308); format: functional
# Sequence of G-protein coupled receptor 183 (P32249 whole entry): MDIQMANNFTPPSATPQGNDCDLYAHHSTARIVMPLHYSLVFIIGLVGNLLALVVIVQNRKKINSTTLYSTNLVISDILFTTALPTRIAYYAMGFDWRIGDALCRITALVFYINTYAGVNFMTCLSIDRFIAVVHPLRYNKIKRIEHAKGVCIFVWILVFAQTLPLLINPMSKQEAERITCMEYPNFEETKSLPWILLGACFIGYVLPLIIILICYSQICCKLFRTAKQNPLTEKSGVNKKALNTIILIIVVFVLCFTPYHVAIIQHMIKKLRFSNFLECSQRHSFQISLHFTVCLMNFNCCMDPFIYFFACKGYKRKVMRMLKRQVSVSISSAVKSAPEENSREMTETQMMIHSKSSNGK
smiles,measurement,setting,value
N#C/C(=C(/O)CSc1nnc(Cc2cccs2)n1C1CCCCC1)c1nc2ccccc2[nH]1,IC50,Aminopeptidase N,78.9 µM (active)
same,IC50,[1],> 100 µM (active)
O=C(/C=C/c1ccc(Br)cc1F)N1CCN(S(=O)(=O)c2ccc(Br)cc2)CC1,IC50,[2],0.0655 µM (active)
CCc1nc(N2[C@H](C#N)[C@H](c3ccccc3-c3ccccc3F)[C@@H]2CO)sc1C,AC50,[3],8.71 µM (active)
same,AC50,[4],> 39 µM (inactive)
Fc1cccc(-c2ccc([C@@H]3[C@@H]4CN(Cc5cccnc5)C[C@H]3N4)cc2)c1,AC50,[3],0.348 µM (active)
same,AC50,[4],13 µM (active)
C[C@@H]1CN([C@@H](C)CO)C(=O)Cc2cc(NC(=O)Nc3ccc4c(c3)OCO4)ccc2O[C@@H]1CN(C)CC1CC1,AC50,[5],4.73 µM (active)
same,AC50,[3],2.37 µM (active)
same,AC50,[6],2.02 µM (active)
same,AC50,[7],2.76 µM (active)
COc1cc2nc(-c3ccccc3)cc(NCCCN3CCCCC3)c2cc1OC,IC50,[8],> 80 µM (inactive)
same,IC50,[9],> 80 µM (inactive)
O=C(/C=C/c1ccc(Br)cc1)N1CCN(Cc2ccc(F)cc2C(F)(F)F)CC1,IC50,[2],0.00818 µM (active)
c1ccc(-c2cc(OCCCN3CCCCC3)c3ccccc3n2)cc1,IC50,[8],11.5 µM (active)
same,IC50,[9],19 µM (active)
